The record followed here is US10696648B2, “Inhibitors of indoleamine 2,3-dioxygenase and methods of their use” (BRISTOL-MYERS SQUIBB COMPANY, priority 2016, dated 2020).

Bounds are passed on as bounds.

By IC50 is commonly meant the concentration that inhibits the measured activity by half.

T1 sequence (P14902 whole entry): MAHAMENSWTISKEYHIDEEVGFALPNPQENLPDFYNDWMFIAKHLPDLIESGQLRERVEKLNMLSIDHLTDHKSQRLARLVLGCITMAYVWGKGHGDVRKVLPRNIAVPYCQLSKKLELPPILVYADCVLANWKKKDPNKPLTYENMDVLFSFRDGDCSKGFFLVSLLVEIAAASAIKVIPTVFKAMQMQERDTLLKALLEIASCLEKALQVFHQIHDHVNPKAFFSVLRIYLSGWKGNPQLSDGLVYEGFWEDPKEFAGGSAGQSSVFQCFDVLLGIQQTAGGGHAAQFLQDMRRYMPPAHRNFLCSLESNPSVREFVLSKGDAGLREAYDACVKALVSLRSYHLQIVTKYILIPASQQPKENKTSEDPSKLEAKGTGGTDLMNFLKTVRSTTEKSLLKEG

The assay has as its target T1, human IDO1 (Homo sapiens, UniProt P14902).
T1 construct: expressed in transfected cells
Nature of the assay: HEK293 cells stably expressing human IDO1, IDO inhibition assay (kynurenine, Ehrlich reagent). In kind it is cell-based. The conditions noted are these: 20 hours incubation, absorbance at 490 nm, read-out: HEK Human IDO-1 Bio Activity (IDO IC50). The protocol: HEK293 cells were transfected with a pCDNA-based mammalian expression vector harboring human IDO1 cDNA (NM 002164.2) by electroporation. They were cultured in medium (DMEM with 10% FBS) containing 1 mg/ml G418 for two weeks. Clones of HEK293 cells that stably expressed human IDO1 protein were selected and expanded for IDO inhibition assay. The human IDO1/HEK293 cells were seeded at 10,000 cells per 50 μL per well with RPMI/phenol red free media contains 10% FBS in a 384-well black wall clear bottom tissue culture plate (Matrix Technologies LLC) 100 nL of certain concentration of compound was then added to each well using ECHO liquid handling systems. The cells were incubated for 20 hours in 37° C. incubator with 5% CO2. The compound treatments were stopped by adding trichloroacetic acid (Sigma-Aldrich) to a final concentration at 0.2%. The cell plate was further incubated at 50° C. for 30 minute. The equal volume supernatant (20 μL) and 0.2% (w/v) Ehrlich reagent (4-dimethylaminobenzaldehyde, Sigma-Aldrich) in glacial acetic acid were mixed in a new clear bottom 384-well plate. This plate was then incubated at room temperature for 30 minute. The absorbance at 490 nm was measured on Envision plate reader. Compound IC50 values were calculated using the counts of 500 nM of a reference standard treatment as one hundred percent inhibition, and counts of no compound but DMSO treatment as zero percent inhibition.
As to `CN(C(=O)Nc1ccc(Cl)cc1)C1CCN(c2ccnc3ccc(F)cc23)CC1` [Example 1, 3-(4-Chlorophenyl)-1-(1-(6-fluoroquinolin-4-yl)piperidin-4-yl)-1-methylurea], the half-inhibitory concentration (IC50) is under 1000 nM.

With `CCCCc1ccc(NC(=O)N(C)C2CCN(c3ccnc4ccc(F)cc34)CC2)cc1` [Example 2, 3-(4-Butylphenyl)-1-(1-(6-fluoroquinolin-4-yl)piperidin-4-yl)-1-methylurea], the concentration for half-maximal inhibition (IC50) was under 100 nM.

As to `CN(C(=O)Nc1ccc(OC(F)(F)F)cc1)C1CCN(c2ccnc3ccc(F)cc23)CC1` [Example 3, 1-(1-(6-Fluoroquinolin-4-yl)piperidin-4-yl)-1-methyl-3-(4-(trifluoromethoxy)phenyl)urea], the IC50 is under 1000 nM.

As for `COc1ccc(CN(C(=O)Nc2ccc(Cl)cc2)[C@H]2CC[C@H](c3ccccc3)CC2)cc1` [Example 4, 3-(4-Chlorophenyl)-1-(4-methoxybenzyl)-1-((1r,4r)-4-phenylcyclohexyl)urea], the half-inhibitory concentration (IC50) was under 100 nM.

For the compound `COc1ccc(CN(C(=O)Nc2ccc(F)cc2F)[C@H]2CC[C@H](c3ccccc3)CC2)cc1` [Example 5, 3-(2,4-difluorophenyl)-1-(4-methoxybenzyl)-1-(trans-4-phenylcyclohexyl)urea], the half-maximal inhibitory concentration (IC50) was under 1000 nM.

Turning to `COc1ccc(CN(C(=O)Nc2ccc(F)c(F)c2)[C@H]2CC[C@H](c3ccccc3)CC2)cc1` [Example 8, 3-(3,4-difluorophenyl)-1-(4-methoxybenzyl)-1-(trans-4-phenylcyclohexyl)urea], the 50% inhibitory concentration (IC50) was under 1000 nM.

As to `COc1ccc(CN(C(=O)Nc2ccc(F)cc2)[C@H]2CC[C@H](c3ccccc3)CC2)cc1` [Example 9, 3-(4-fluorophenyl)-1-(4-methoxybenzyl)-1-(trans-4-phenylcyclohexyl)urea], the IC50 is under 1000 nM.

With `COc1ccc(CN(C(=O)Nc2ccc(OC(F)(F)F)cc2)[C@H]2CC[C@H](c3ccccc3)CC2)cc1` [Example 10, 1-(4-methoxybenzyl)-1-(trans-4-phenylcyclohexyl)-3-(4-(trifluoromethoxy)phenyl)urea], the concentration for half-maximal inhibition (IC50) is under 1000 nM.

`COc1ccc(CN(C(=O)Nc2ccc(C(F)(F)F)cc2)[C@H]2CC[C@H](c3ccccc3)CC2)cc1` [Example 12, 1-(4-methoxybenzyl)-1-(trans-4-phenylcyclohexyl)-3-(4-(trifluoromethyl)phenyl)urea]: the IC50 is under 100 nM.

For `CCOc1ccc(NC(=O)N(Cc2ccc(OC)cc2)[C@H]2CC[C@H](c3ccccc3)CC2)cc1` [Example 13, 3-(4-ethoxyphenyl)-1-(4-methoxybenzyl)-1-(trans-4-phenylcyclohexyl)urea], the IC50 was under 1000 nM.

For `CN(C(=O)Nc1ccc(Cl)cc1)[C@H]1CC[C@H](c2ccnc3ccc(F)cc32)CC1` [Example 14, 3-(4-Chlorophenyl)-1-(trans-4-(6-fluoroquinolin-4-yl)cyclohexyl)-1-methylurea], the IC50 was under 100 nM.

Take `CN(C(=O)Nc1ccc(Cl)cc1)[C@H]1CC[C@@H](c2ccnc3ccc(F)cc32)CC1` [Example 15, 3-(4-chlorophenyl)-1-(cis-4-(6-fluoroquinolin-4-yl)cyclohexyl)-1-methylurea]: the IC50 is under 1000 nM.

For `CCN(C(=O)Nc1ccc(Cl)cc1)[C@H]1CC[C@H](c2ccnc3ccc(F)cc32)CC1` [Example 16, 3-(4-Chlorophenyl)-1-ethyl-1-(trans-4-(6-fluoroquinolin-4-yl)cyclohexyl)urea], the half-maximal inhibitory concentration (IC50) is under 100 nM.

For `CCN(C(=O)Nc1ccc(Cl)cc1)[C@H]1CC[C@@H](c2ccnc3ccc(F)cc32)CC1` [Example 17, 3-(4-chlorophenyl)-1-ethyl-1-(cis-4-(6-fluoroquinolin-4-yl)cyclohexyl)urea], the half-inhibitory concentration (IC50) is under 1000 nM.

As to `O=C(Nc1ccc(Cl)cc1)N(Cc1ccccc1)[C@H]1CC[C@H](c2ccnc3ccc(F)cc32)CC1` [Example 18, 1-benzyl-3-(4-chlorophenyl)-1-(trans-4-(6-fluoroquinolin-4-yl)cyclohexyl)urea], the concentration for half-maximal inhibition (IC50) was under 100 nM.

Take `O=C(Nc1ccc(F)cc1)N(Cc1ccccc1)[C@H]1CC[C@H](c2ccnc3ccc(F)cc32)CC1` [Example 19, 1-benzyl-3-(4-fluorophenyl)-1-(trans-4-(6-fluoroquinolin-4-yl)cyclohexyl)urea]: the concentration for half-maximal inhibition (IC50) is under 100 nM.

For the compound `Cc1ccc(NC(=O)N(Cc2ccccc2)[C@H]2CC[C@H](c3ccnc4ccc(F)cc43)CC2)cc1` [Example 20, 1-benzyl-1-(trans-4-(6-fluoroquinolin-4-yl)cyclohexyl)-3-(p-tolyl)urea], the IC50 is under 1000 nM.

In the case of `O=C(Nc1ccc(Cl)cc1F)N(Cc1ccccc1)[C@H]1CC[C@H](c2ccnc3ccc(F)cc32)CC1` [Example 21, 1-benzyl-3-(4-chloro-2-fluorophenyl)-1-(trans-4-(6-fluoroquinolin-4-yl)cyclohexyl)urea], the half-maximal inhibitory concentration (IC50) was under 1000 nM.

On to `N#Cc1ccc(NC(=O)N(Cc2ccccc2)[C@H]2CC[C@H](c3ccnc4ccc(F)cc43)CC2)cc1` [Example 22, 1-benzyl-3-(4-cyanophenyl)-1-(trans-4-(6-fluoroquinolin-4-yl)cyclohexyl)urea], for which the IC50 is under 10000 nM.

For `O=C(Nc1ccc(Cl)cc1)N(Cc1ccccc1)[C@H]1CC[C@@H](c2ccnc3ccc(F)cc32)CC1` [Example 23, 1-benzyl-3-(4-chlorophenyl)-1-(cis-4-(6-fluoroquinolin-4-yl)cyclohexyl)urea], the concentration for half-maximal inhibition (IC50) is under 1000 nM.

In the case of `O=C(Nc1ccc(Cl)cc1F)N(Cc1ccccc1)[C@H]1CC[C@@H](c2ccnc3ccc(F)cc32)CC1` [Example 24, 1-benzyl-3-(4-chloro-2-fluorophenyl)-1-(cis-4-(6-fluoroquinolin-4-yl)cyclohexyl)urea], the half-maximal inhibitory concentration (IC50) is under 100 nM.

In the case of `O=C(O)Cc1ccc(CN(C(=O)Nc2ccc(Cl)cc2)[C@H]2CC[C@H](c3ccnc4ccc(F)cc43)CC2)cc1` [Example 25, 2-(4-((3-(4-chlorophenyl)-1-(trans-4-(6-fluoroquinolin-4-yl)cyclohexyl)ureido)methyl)phenyl)acetic Acid], the IC50 was under 1000 nM.

Consider `O=C(O)Cc1ccc(CN(C(=O)Nc2ccc(Cl)cc2F)[C@H]2CC[C@H](c3ccnc4ccc(F)cc43)CC2)cc1` [Example 26, 2-(4-((3-(4-chloro-2-fluorophenyl)-1-(trans-4-(6-fluoroquinolin-4-yl)cyclohexyl)ureido)methyl)phenyl) acetic acid], for which the half-inhibitory concentration (IC50) was under 100 nM.

With `O=C(O)Cc1ccc(CN(C(=O)Nc2ccccc2)[C@H]2CC[C@H](c3ccnc4ccc(F)cc43)CC2)cc1` [Example 27, 2-(4-((1-(trans-4-(6-fluoroquinolin-4-yl)cyclohexyl)-3-phenylureido)methyl)phenyl)acetic acid], the IC50 is under 100 nM.

As for `O=C(O)Cc1ccc(CN(C(=O)Nc2ccc(Cl)cc2)[C@H]2CC[C@@H](c3ccnc4ccc(F)cc43)CC2)cc1` [Example 28, 2-(4-((3-(4-chlorophenyl)-1-(cis-4-(6-fluoroquinolin-4-yl)cyclohexyl)ureido)methyl)phenyl)acetic acid], the IC50 was under 10000 nM.

Consider `COc1ccc(CN(C(=O)N[C@@H](C)c2ccc(Cl)cc2)[C@H]2CC[C@H](c3ccccc3)CC2)cc1` [Example 31, 3-((S)-1-(4-chlorophenyl)ethyl)-1-(4-methoxybenzyl)-1-((1r,4S)-4-phenylcyclohexyl)urea], for which the IC50 is under 1000 nM.
